Results on six molecules are retold here after ChEMBL document CHEMBL1139652, “6H,13H-Pyrazino[1,2-a;4,5-a']diindole analogs: probing the pharmacophore for allosteric ligands of muscarinic M2 receptors” (Bioorg Med Chem Lett, 2006).

One assay has as its target Acetylcholine receptor (Torpedo californica, UniProt P02710+P02712+P02714+P02718). Briefly: Displacement of (+/-)-[3H]epibatidine from muscle type nAChR of Torpedo californica in hepes buffer. It is filed as tissue-based, Tetronarce californica.
For assay [1], the target named is T1, Muscarinic acetylcholine receptor M2 (Homo sapiens, UniProt P08172).
T1 sequence (P08172 whole entry): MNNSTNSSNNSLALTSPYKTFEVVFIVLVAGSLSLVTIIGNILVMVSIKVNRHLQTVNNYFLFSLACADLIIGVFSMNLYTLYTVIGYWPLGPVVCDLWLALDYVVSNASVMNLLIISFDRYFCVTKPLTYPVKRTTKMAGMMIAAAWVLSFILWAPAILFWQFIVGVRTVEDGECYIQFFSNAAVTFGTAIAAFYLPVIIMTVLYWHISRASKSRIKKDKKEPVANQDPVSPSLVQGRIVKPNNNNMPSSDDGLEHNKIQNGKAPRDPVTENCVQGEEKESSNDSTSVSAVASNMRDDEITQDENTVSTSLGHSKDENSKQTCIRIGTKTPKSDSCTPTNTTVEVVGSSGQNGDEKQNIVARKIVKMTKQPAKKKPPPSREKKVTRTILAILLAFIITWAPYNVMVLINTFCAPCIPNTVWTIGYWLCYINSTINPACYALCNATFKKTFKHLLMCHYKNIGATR
Briefly: Inhibition of [3H]NMS dissociation from muscarinic M2 receptor in Na,K,Pi buffer.

Assay [2] can be described thus: Selectivity for muscle type nAChR over muscarinic M2 receptor in hepes buffer.
Assay [3] concerns the target T1, Muscarinic acetylcholine receptor M2. The experiment in a line: Inhibition of [3H]NMS dissociation from muscarinic M2 receptor in hepes buffer.

Acetylcholine receptor, sequence (P02710 whole entry): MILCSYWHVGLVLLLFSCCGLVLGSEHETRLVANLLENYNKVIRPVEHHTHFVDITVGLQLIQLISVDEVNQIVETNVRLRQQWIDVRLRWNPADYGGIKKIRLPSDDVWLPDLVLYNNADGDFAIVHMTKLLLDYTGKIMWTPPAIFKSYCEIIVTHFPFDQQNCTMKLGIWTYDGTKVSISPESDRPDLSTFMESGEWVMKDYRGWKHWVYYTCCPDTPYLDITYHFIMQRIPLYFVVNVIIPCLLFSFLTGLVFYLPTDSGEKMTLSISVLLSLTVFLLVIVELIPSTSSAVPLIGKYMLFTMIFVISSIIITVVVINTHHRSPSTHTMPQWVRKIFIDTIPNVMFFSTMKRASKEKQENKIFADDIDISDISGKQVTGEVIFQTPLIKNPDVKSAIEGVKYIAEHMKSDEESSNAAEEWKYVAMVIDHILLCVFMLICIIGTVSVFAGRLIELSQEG
Acetylcholine receptor, sequence (P02712 whole entry): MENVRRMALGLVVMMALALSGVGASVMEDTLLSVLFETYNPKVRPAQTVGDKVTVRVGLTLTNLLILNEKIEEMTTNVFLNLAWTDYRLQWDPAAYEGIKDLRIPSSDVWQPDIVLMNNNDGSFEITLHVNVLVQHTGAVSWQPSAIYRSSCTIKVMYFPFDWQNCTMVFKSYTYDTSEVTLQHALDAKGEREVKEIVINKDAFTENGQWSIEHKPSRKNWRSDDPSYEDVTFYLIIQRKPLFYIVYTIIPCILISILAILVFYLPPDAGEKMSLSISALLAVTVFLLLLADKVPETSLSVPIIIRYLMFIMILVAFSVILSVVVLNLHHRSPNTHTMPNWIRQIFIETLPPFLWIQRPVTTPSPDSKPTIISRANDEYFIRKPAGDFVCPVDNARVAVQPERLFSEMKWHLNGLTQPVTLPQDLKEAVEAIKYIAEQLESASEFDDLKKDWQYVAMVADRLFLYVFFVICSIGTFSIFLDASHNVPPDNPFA
Acetylcholine receptor, sequence (P02718 whole entry): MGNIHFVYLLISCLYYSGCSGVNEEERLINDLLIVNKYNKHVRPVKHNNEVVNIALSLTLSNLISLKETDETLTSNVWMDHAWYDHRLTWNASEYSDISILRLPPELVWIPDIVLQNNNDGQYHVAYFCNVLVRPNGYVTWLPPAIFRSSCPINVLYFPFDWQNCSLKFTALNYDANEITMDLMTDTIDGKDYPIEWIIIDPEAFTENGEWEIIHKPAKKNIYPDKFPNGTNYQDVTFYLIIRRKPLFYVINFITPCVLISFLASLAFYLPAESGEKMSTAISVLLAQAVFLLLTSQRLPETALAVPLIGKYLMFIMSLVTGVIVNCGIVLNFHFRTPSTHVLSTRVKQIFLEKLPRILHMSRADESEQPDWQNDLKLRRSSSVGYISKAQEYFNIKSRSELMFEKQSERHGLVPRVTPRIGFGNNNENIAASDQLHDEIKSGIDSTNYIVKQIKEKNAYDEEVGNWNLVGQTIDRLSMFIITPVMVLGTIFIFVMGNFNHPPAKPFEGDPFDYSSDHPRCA
Acetylcholine receptor, sequence (P02714 whole entry): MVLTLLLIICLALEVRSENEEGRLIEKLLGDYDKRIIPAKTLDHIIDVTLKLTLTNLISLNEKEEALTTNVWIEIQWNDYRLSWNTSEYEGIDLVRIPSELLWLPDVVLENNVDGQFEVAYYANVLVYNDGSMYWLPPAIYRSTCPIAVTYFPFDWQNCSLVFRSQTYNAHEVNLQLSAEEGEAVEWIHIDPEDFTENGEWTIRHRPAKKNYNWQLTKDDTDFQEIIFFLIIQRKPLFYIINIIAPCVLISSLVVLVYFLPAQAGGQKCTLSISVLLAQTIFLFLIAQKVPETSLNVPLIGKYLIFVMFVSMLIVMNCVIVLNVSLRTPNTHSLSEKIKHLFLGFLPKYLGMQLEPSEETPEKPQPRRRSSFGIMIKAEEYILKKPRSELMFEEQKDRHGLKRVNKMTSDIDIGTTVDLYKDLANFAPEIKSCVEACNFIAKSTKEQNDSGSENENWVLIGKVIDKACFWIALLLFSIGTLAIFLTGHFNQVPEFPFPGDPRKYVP

At Acetylcholine receptor, `C=CC[N+]12CC[C@@]34c5ccccc5N5[C@@H]6OCC=C7C[N+]8(CC=C)CC[C@]9%10c%11ccccc%11N([C@@H]%11OCC=C(C1)[C@H](C[C@@H]32)[C@@H]%11[C@H]54)[C@H]9[C@H]6[C@H]7C[C@@H]%108` (stereo partly drawn) [DIALLYLCARACURIE V] showed an inhibition constant Ki of 1510 nM. The molecule also had an EC50 in assay [1] of 11.2 nM.

For `C[N+]12CC[C@@]34c5ccccc5N5[C@@H]6OCC=C7C[N+]8(C)CC[C@]9%10c%11ccccc%11N([C@@H]%11OCC=C(C1)[C@H](C[C@@H]32)[C@@H]%11[C@H]54)[C@H]9[C@H]6[C@H]7C[C@@H]%108` (stereo partly drawn) [DIMETHYLCARACURIE V], the inhibition constant Ki at Acetylcholine receptor was 5250 nM. This molecule had an EC50 in assay [1] of 8.13 nM.

Turning to `C[N+](C)(C)Cc1c2n(c3ccccc13)Cc1c(C[N+](C)(C)C)c3ccccc3n1C2`, in assay [2], the Selectivity ratio was found to be 34. At Acetylcholine receptor, this molecule showed a Ki of 331 nM. The EC50 was 11200 nM in assay [3] and 229 nM in assay [1].

With `C=CC[N+](C)(C)Cc1c2n(c3ccccc13)Cc1c(C[N+](C)(C)CC=C)c3ccccc3n1C2`, in assay [2], the Selectivity ratio was determined as 4.2. On Acetylcholine receptor, this molecule showed a Ki of 550 nM. In addition, the EC50 in assay [3] is 2290 nM; in assay [1], 110 nM.

As for `C1=C2CN3CC[C@]45c6ccccc6N6[C@@H]7OCC=C8CN9CC[C@]%10%11c%12ccccc%12N([C@H](OC1)[C@@H]([C@H]64)[C@H]2C[C@H]35)[C@H]%10[C@H]7[C@H]8C[C@H]9%11` [CARACURINE V], the Ki on Acetylcholine receptor is > 100000 nM. This molecule also gave a concentration giving a half-maximal response (EC50) in assay [1] of 437 nM.

As for `CN(C)Cc1c2n(c3ccccc13)Cc1c(CN(C)C)c3ccccc3n1C2`, in assay [2], the Selectivity ratio stood at 1.5. The same molecule had an inhibitory constant (Ki) on Acetylcholine receptor of 10700 nM. In addition, the EC50 in assay [3] was 16600 nM; in assay [1], 447 nM.
